Values joined by “and” are separate entries in the source; they are usually repeats but may differ in a detail not shown here. Equal entries are not always repeated. Structures can show the parent of a compound that is named as a salt. Where two headings read alike, the source gives them in different places.
Assays:
[1] = system: AMO-1; experiment: Antiproliferation assay (Assay 7), AMO-1; format: cell-based; conditions: CellTiter-Glo, several values per example
Summary of the method: (§1)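 Proliferation over 72 h at 37° C was assessed by luminescent cell viability reagent, referenced to a day 0 plate.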

[2] = system: SUDHL5; experiment: Antiproliferation assay (Assay 7), SUDHL5; format: cell-based; conditions: CellTiter-Glo, median, read-out: Antiproli SUDHL5 [M] (median) IC50
Summary of the method: as §1

[3] = molecular target: BCL-2 (Homo sapiens (Human), UniProt P10415); experiment: Protein-protein interaction assay BCL-2/Bad BH3 peptide (BCL-2 assay, TR-FRET); format: binding; conditions: His-BCL-2 / Bad BH3 peptide, median
Chain of BCL-2 (P10415 other isoform, or with tags, fused parts or gaps): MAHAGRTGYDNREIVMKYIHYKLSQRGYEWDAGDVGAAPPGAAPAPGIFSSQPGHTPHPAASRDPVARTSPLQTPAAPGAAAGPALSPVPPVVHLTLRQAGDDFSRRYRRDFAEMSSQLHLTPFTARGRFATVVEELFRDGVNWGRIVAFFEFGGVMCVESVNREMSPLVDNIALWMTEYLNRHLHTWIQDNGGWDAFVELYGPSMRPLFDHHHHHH
Summary of the method: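 His-BCL-2 (1-211, E. coli) at 1 nM preincubated 10 min at 22 °C with compound (11 concentrations, 0.1 nM-20 μM, duplicates), then 1 nM biotinylated Bad BH3 peptide added. After 1 h at 22 °C plus overnight at 4 °C, TR-FRET 665/620 ratio normalised to DMSO and no-BCL-2 controls, IC50 from 4-parameter fit.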

[4] = system: SUDHL5; experiment: Induction of caspase-3/7 activity (Assay 4), SUDHL5; format: cell-based; conditions: caspase-3/7 induction, median
Summary of the method: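 DLBCL cells were exposed to compounds for 3 hours at 37 °C, then caspase-3/7 activation was read with Caspase-Glo 3/7 reagent. After subtracting medium-only background, EC50s were derived with fixed C0=1 and the reference compound's maximal induction as plateau.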

[5] = 72 hours, read-out: Antiproli AMO-1 [M] IC50
[6] = Homo sapiens, AMO1, 72 h, read-out: Antiproli AMO-1 [M] IC50

Row | Compound | IC50 ([2]; 72 hours) | IC50 [3] | EC50 ([4]; 3 hours) | IC50 ([2]; Homo sapiens, SU-DHL-5, 72 h) | EC50 ([4]; Homo sapiens, SU-DHL-5, 3 h) | IC50 [1, 5] | IC50 ([1]; 72 hours, listed as 09, read-out: Antiproli AMO-1 [M] IC50) | IC50 [1, 6]
1 | CCc1c2c(nn1C)CNS(=O)(=O)CCCn1c(C(=O)O)c(CCCOc3cccc4ccccc34)c3cccc-2c31 (racemic) [Example 17, (rac)-12-Ethyl-11-methyl-1-(3-(naphthalen-1-yloxy)propyl)-4,5,6,8,9,11-hexahydropyrazolo[3′,4′:4,5][1,2,8]thiadiazacycloundecino[6,7,8-hi]indole-2-carboxylic acid 7,7-dioxide] | – | > 20 µM | – | 4.7e-06 M | 13 µM | – | – | > 3.3e-05 M
2 | CCc1c2c(nn1C)CN(C)S(=O)(=O)CCCn1c(C(=O)O)c(CCCOc3cccc4c3CCC4)c3ccc(F)c-2c31 (racemic) [Example 32, (rac)-1-(3-((2,3-Dihydro-1H-inden-4-yl)oxy)propyl)-12-ethyl-13-fluoro-8,11-dimethyl-5,6,9,11-tetrahydro-4H,8H-pyrazolo[3′,4′:4,5][1]thia[2,8]diazacycloundecino[6,7,8-hi]indole-2-carboxylic acid 7,7-dioxide] | – | > 20 µM | – | 3.9e-07 M | 0.58 µM | 3.9e-06 M | – | 2.4e-06 M
3 | CCc1c2c(nn1C)CN(C)S(=O)(=O)CCCn1c(C(=O)O)c(CCCOc3ccc(F)c4ccccc34)c3ccc(Cl)c-2c31 [Example 24, (rac)-13-Chloro-12-ethyl-1-(34(4-fluoronaphthalen-1-yl)oxy)propyl)-8,11-dimethyl-4,5,6,8,9,11-hexahydropyrazolo[3′,4′:4,5][1,2,8]thiadiazacycloundecino[6,7,8-hi]indole-2-carboxylic acid 7,7-dioxide] | – | > 20 µM | – | 1.2e-06 M | 1.1 µM | – | – | 4.3e-06 M
4 | CCc1c2c(nn1C)C(CCC1CCOCC1)N(C)S(=O)(=O)CCCn1c(C(=O)O)c(CCCOc3cccc4cc(F)ccc34)c3ccc(Cl)c-2c31 (single isomer, unassigned; enantiomer 4) [Example 64, (−)-4-chloro-3-ethyl-7-{3-[(6-fluoronaphthalen-1-yl)oxy]propyl}-2,14-dimethyl-15-[2-(oxan-4-yl)ethyl]-13,13-dioxo-10,11,12,13,14,15-hexahydro-2H-13lambda^6-pyrazolo[3′,4′:4,5][1,2,8]thiadiazacycloundecino[6,7,8-hi]indole-8-carboxylic acid (Enantiomer 4)] | 1.4e-06 M | > 20 µM | 1.2 µM | – | – | 1e-06 M | – | –
5 | Cc1c2c(nn1C)CN(C)S(=O)(=O)CCCn1c(C(=O)O)c(CCCOc3cccc4cc(F)ccc34)c3ccc(F)c-2c31 (single isomer, unassigned; enantiomer 2) [Example 39, (+)-4-fluoro-7-{3-[(6-fluoronaphthalen-1-yl)oxy]propyl}-2,3,14-trimethyl-13,13-dioxo-10,11,12,13,14,15-hexahydro-2H-13lambda^6-pyrazolo[3′,4′:4,5][1,2,8]thiadiazacycloundecino-[6,7,8-hi]indole-8-carboxylic acid (Enantiomer 2)] | 5.4e-07 M | > 20 µM | 0.35 µM | – | – | 1.4e-06 M | – | –
6 | Cc1c2c(nn1C)C(CCN1CCOCC1)N(C)S(=O)(=O)CCCn1c(C(=O)O)c(CCCOc3cccc4cc(F)ccc34)c3ccc(Cl)c-2c31 (single isomer, unassigned; enantiomer 1) [Example 66, 4-chloro-7-{3-[(6-fluoronaphthalen-1-yl)oxy]propyl}-2,3,14-trimethyl-15-[2-(morpholin-4-yl)ethyl]-13,13-dioxo-10,11,12,13,14,15-hexahydro-2H-13lambda^6-pyrazolo[3′,4′:4,5][1,2,8]thiadiazacycloundecino[6,7,8-hi]indole-8-carboxylic acid (Enantiomer 1)] | 4e-06 M | > 20 µM | 3.5 µM | – | – | 3.7e-06 M | – | –
7 | CCc1c2c(nn1C)CN(CCCN1CCCC1=O)S(=O)(=O)CCCn1c(C(=O)O)c(CCCOc3cccc4ccccc34)c3cccc-2c31 (racemic) [Example 13, (rac)-12-Ethyl-11-methyl-1-(3-(naphthalen-1-yloxy)propyl)-8-(3-(2-oxopyrrolidin-1-yl)propyl)-5,6,9,11-tetrahydro-4H,8H-pyrazolo[3′,4′:4,5][1]thia[2,8]diazacycloundecino[6,7,8-hi]indole-2-carboxylic acid 7,7-dioxide] | – | > 20 µM | – | 4.4e-06 M | 10 µM | – | – | > 3.3e-05 M
8 | Cc1c2c(nn1C)CN(C1CC1)S(=O)(=O)CCCn1c(C(=O)O)c(CCCOc3cccc4cc(F)ccc34)c3ccc(Cl)c-2c31 (single isomer, unassigned; enantiomer 1) [Example 42, (−)-4-chloro-14-cyclopropyl-7-{3-[(6-fluoro-1-naphthyl)oxy]propyl}-2,3-dimethyl-11,12,14,15-tetrahydro-2H,10H-pyrazolo[3′,4′:4,5][1,2,8]thiadiazacycloundecino[6,7,8-hi]indole-8-carboxylic acid 13,13-dioxide N-diethylamine salt (Enantiomer 1)] | 2.7e-07 M | 12 µM | 0.19 µM | – | – | 2.6e-07 M and 4.7e-07 M | – | –
9 | Cc1c2c(nn1C)CN(C)S(=O)(=O)CCCn1c(C(=O)O)c(CCCOc3cccc4ccccc34)c3ccc(Cl)c-2c31 (racemic) [Example 4, (rac)-4-Chloro-2,3,14-trimethyl-7-{3-[(naphthalen-1-yl)oxy]propyl}-13,13-dioxo-10,11,12,13,14,15-hexahydro-2H-13λ^6-pyrazolo[3′,4′:4,5][1,2,8]thiadiazacycloundecino-[6,7,8-hi]indole-8-carboxylic acid] | 9.2e-07 M | > 20 µM | 0.63 µM | – | – | – | – | 2.5e-06 M

The next lines start with results.

Row | IC50 ([2]; 72 hours) | IC50 [3] | EC50 ([4]; 3 hours) | IC50 ([2]; Homo sapiens, SU-DHL-5, 72 h) | EC50 ([4]; Homo sapiens, SU-DHL-5, 3 h) | Compound | IC50 [1, 5] | IC50 ([1]; 72 hours, listed as 09, read-out: Antiproli AMO-1 [M] IC50) | IC50 [1, 6]
10 | 3.7e-06 M | 14 µM | 4.1 µM | – | – | CCc1c2c(nn1C)C(CCC1CCOCC1)N(C)S(=O)(=O)CCCn1c(C(=O)O)c(CCCOc3cccc4cc(F)ccc34)c3ccc(Cl)c-2c31 (single isomer, unassigned; enantiomer 2) [Example 62, (−)-4-chloro-3-ethyl-7-{3-[(6-fluoronaphthalen-1-yl)oxy]propyl}-2,14-dimethyl-15-[2-(oxan-4-yl)ethyl]-13,13-dioxo-10,11,12,13,14,15-hexahydro-2H-13lambda^6-pyrazolo[3′,4′:4,5][1,2,8]thiadiazacycloundecino[6,7,8-hi]indole-8-carboxylic acid (Enantiomer 2)] | 3.8e-06 M | – | –
11 | 2.2e-06 M | 20 µM | 5 µM | – | – | CCc1c2c(nn1C)CN(C)S(=O)(=O)CCCn1c(C(=O)O)c(CCCOc3cccc4cc(F)ccc34)c3ccc(Cl)c-2c31 (single isomer, unassigned; enantiomer 2) [Example 37, (−)-4-chloro-3-ethyl-7-{3-[(6-fluoronaphthalen-1-yl)oxy]propyl}-2,14-dimethyl-13,13-dioxo-10,11,12,13,14,15-hexahydro-2H-13lambda^6-pyrazolo[3′,4′:4,5][1,2,8]thiadiazacycloundecino-[6,7,8-hi]indole-8-carboxylic acid (Enantiomer 2)] | 2.8e-05 M | – | –
12 | 1.4e-05 M | > 20 µM | 21 µM | – | – | CCc1c2c(nn1C)CN(C)S(=O)(=O)CCCn1c(C(=O)O)c(CCCOc3cccc4cc(F)ccc34)c3ccc(F)c-2c31 (single isomer, unassigned; enantiomer 2) [Example 9, (−)-3-Ethyl-4-fluoro-7-{3-[(6-fluoronaphthalen-1-yl)oxy]propyl}-2,14-dimethyl-13,13-dioxo-10,11,12,13,14,15-hexahydro-2H-13λ^6-pyrazolo[3′,4′:4,5][1,2,8]thiadiazacycloundecino-[6,7,8-hi]indole-8-carboxylic acid (Enantiomer 2)] | – | > 3.3e-05 M | –
13 | – | > 20 µM | – | 9.2e-07 M | 1.1 µM | Cc1c2c(nn1C)C(CCN1CCOCC1)N(C)S(=O)(=O)CCCn1c(C(=O)O)c(CCCOc3cccc4ccccc34)c3cccc-2c31 (racemic) [Example 44, (rac)-2,3,14-trimethyl-15-[2-(rac)-(morpholin-4-yl)ethyl]-7-[3-(1-naphthyloxy)propyl]-11,12,14,15-tetrahydro-2H,10H-pyrazolo[3′,4′:4,5][1,2,8]thiadiazacycloundecino[6,7,8-hi]indole-8-carboxylic acid 13,13-dioxide (Mixture of Stereoisomers)] | – | – | 4.4e-06 M
14 | 3.9e-08 M | 16 µM | 0.022 µM | – | – | CCc1c2c(nn1C)C(CCC1CCOCC1)N(C)S(=O)(=O)CCCn1c(C(=O)O)c(CCCOc3cccc4cc(F)ccc34)c3ccc(Cl)c-2c31 (single isomer, unassigned; enantiomer 1) [Example 61, (+)-4-chloro-3-ethyl-7-{3-[(6-fluoronaphthalen-1-yl)oxy]propyl}-2,14-dimethyl-15-[2-(oxan-4-yl)ethyl]-13,13-dioxo-10,11,12,13,14,15-hexahydro-2H-13lambda^6-pyrazolo[3′,4′:4,5][1,2,8]thiadiazacycloundecino[6,7,8-hi]indole-8-carboxylic acid (Enantiomer 1)] | 2.5e-08 M and 2.8e-08 M | – | –

Reference: US11401278B2, “Macrocyclic indole derivatives” (The Broad Institute, Inc., priority 2017, dated 2022)
